PMC8205226, “HIV-1 Integrase Inhibitors with Modifications That Affect Their Potencies against Drug Resistant Integrase Mutants” (ACS Infectious Diseases, 2021)
Like-named read-outs stand apart in the source and are kept apart here.

Legend:
Format in all cases: cell-based
[1] = tested on: HIV-1 IN double mutant G140S/Q148H; assay: single-round infectivity assay, G140S/Q148H IN double mutant
Procedure: (§1) Figure 2 Antiviral activities of the new compounds against RAL-resistant mutants. The EC50 values were determined using a vector that carries WT HIV-1 IN and the RAL-resistant mutants in a single round infection assay. […] Error bars represent the standard deviations of independent experiments, n = 4, performed in triplicate. The graph has a maximum value of 550 nM.
(§2) WT and mutant HIV-1 viral vectors were used in single-round infectivity assays to determine the antiviral potencies (EC50 values) of the compounds and the effects of the mutants on the EC50 values as previously described.[30],[54] Single round infectivity measurements were determined as done previously.[38]
(§3) The vector pNLNgoMIVR-ΔENV.LUC has been described previously.[26] To produce the new IN mutants used in this study, the IN open reading frame was removed from pNLNgoMIVR-ΔENV.LUC by digestion with KpnI and SalI, and the resulting fragment was inserted between the KpnI and SalI sites of pBluescript KS+. Using that construct as the wild-type template, we prepared the following HIV-1 IN mutants using the QuikChange II XL site directed mutagenesis kit (Agilent Technologies, Santa Clara, CA) protocol: N117A, N117H, P142A, P142H, P142S, Y143C, Y143H, S230R, R231G, and R231K. The following sense oligonucleotides were used with matching cognate antisense oligonucleotides (not shown) (Integrated DNA Technologies, Coralville, IA) in the mutagenesis: N117A, 5′-[…]-3′; N117H, 5′-[…]-3′; P142A, 5′-[…]-3′; P142H, 5′-[…]-3′; P142S, 5′-[…]-3′; Y143C, 5′- […]-3′; Y143H, 5′-[…]-3′; S230R, 5′- […]-3′; R231G, 5′-[…]-3′; R231K, 5′-[…]-3′.

HIV-1 IN mutant S119R = assay: single-round infectivity assay, S119R IN mutant
Procedure: (§4) The EC50 values were determined using a vector that carries the IN mutant in a single round infection assay. […] Error bars represent the standard deviations of independent experiments, n = 4, performed in triplicate.
as §2, §3

HIV-1 IN mutant N117H = assay: single-round infectivity assay, N117H IN mutant
Procedure: as §4, §2, §3

HIV-1 IN mutant P142A = assay: single-round infectivity assay, P142A IN mutant
Procedure: as §4, with “Figure 4 Mutations in the β5-α3 loop affect the antiviral potencies of the new compounds. The” for “The”
as §2, §3

HIV-1 IN mutant N117A = assay: single-round infectivity assay, N117A IN mutant
Procedure: as §4, §2, §3

HIV-1 IN mutant R231G = assay: single-round infectivity assay, R231G IN mutant
Procedure: as §4, with “Figure 5 Antiviral potencies of the new compounds against IN with mutations in the […]. The” for “The”
as §2, §3

HIV-1 IN mutant G118R = assay: single-round infectivity assay, G118R IN mutant
Procedure: as §4, §2, §3

HIV-1 IN mutant P142H = assay: single-round infectivity assay, P142H IN mutant
Procedure: as §4
Single round infectivity measurements were determined as done previously.[38]
as §3

HIV-1 IN mutant S230R = assay: single-round infectivity assay, S230R IN mutant
Procedure: as §4, with “Figure 5 Antiviral potencies of the new compounds against IN with mutations in the […]. The” for “The”
as §2, §3

WT HIV-1 = assay: single-round infectivity assay, WT HIV-1 IN vector; conditions: Human immunodeficiency virus 1, read-out: EC50 values WT, vector carrying WT HIV-1 IN, single round infection, n = 4; new compounds
Procedure: as §1, §2, §3

HIV-1 IN mutant Y143R = assay: single-round infectivity assay, Y143R IN mutant
Procedure: as §1, §2, §3

HIV-1 IN mutant Y143C = assay: single-round infectivity assay, Y143C IN mutant
Procedure: as §4, with “Figure 4 Mutations in the β5-α3 loop affect the antiviral potencies of the new compounds. The” for “The”
as §2, §3

HIV-1 IN mutant Y143H = assay: single-round infectivity assay, Y143H IN mutant
Procedure: as §4, with “Figure 4 Mutations in the β5-α3 loop affect the antiviral potencies of the new compounds. The” for “The”
as §2, §3

HIV-1 IN mutant R231K = assay: single-round infectivity assay, R231K IN mutant
Procedure: as §4, with “Figure 5 Antiviral potencies of the new compounds against IN with mutations in the […]. The” for “The”
as §2, §3

HIV-1 IN mutant P142S = assay: single-round infectivity assay, P142S IN mutant
Procedure: as §4, with “Figure 4 Mutations in the β5-α3 loop affect the antiviral potencies of the new compounds. The” for “The”
as §2, §3

HIV-1 IN mutant N155H = assay: single-round infectivity assay, N155H IN mutant
Procedure: as §1, §2, §3

[2] = fold change in EC50, IN mutant versus WT HIV-1

SMILES: O=C(NCc1ccc(F)cc1F)c1c(O)c2cc(CCS(=O)(=O)c3ccccc3)cnc2n(O)c1=O [6w, N-(2,4-Difluorobenzyl)-1,4-dihydroxy-2-oxo-6-(2-(phenylsulfonyl)ethyl)-1,2-dihydro-1,8-naphthyridine-3-carboxamide]
- FC, difference in potencies 6w compared to 4f against G140S/Q148H ([1]; EC50 6w / EC50 4f): 18.8
- ratio of the EC50s (our compound relative to DTG) against G140S/Q148H ([1]; EC50 compound / EC50 DTG): 16.8
- EC50 ([1]; Human immunodeficiency virus 1, read-out: EC50 values G140S/Q148H): 97.5 ± 16.8 nM
- FC G140S/Q148H [1, 2]: 9.2
- ratio of the EC50s (our compound relative to DTG) against S119R (HIV-1 IN mutant S119R; EC50 compound / EC50 DTG): 16.6
- EC50 (HIV-1 IN mutant S119R; Human immunodeficiency virus 1, read-out: EC50 values S119R): 38.2 ± 6 nM
- FC S119R (HIV-1 IN mutant S119R; [2]): 3.6
- ratio of the EC50s (our compound relative to DTG) against N117H (HIV-1 IN mutant N117H; EC50 compound / EC50 DTG): 7.9
- EC50 (HIV-1 IN mutant N117H; Human immunodeficiency virus 1, read-out: EC50 values N117H): 19 ± 1.4 nM
- FC N117H (HIV-1 IN mutant N117H; [2]): 1.8
- ratio of the EC50s (our compound relative to DTG) against P142A (HIV-1 IN mutant P142A; EC50 compound / EC50 DTG): 9.1
- EC50 (HIV-1 IN mutant P142A; Human immunodeficiency virus 1, read-out: EC50 values P142A): 22.8 ± 2.5 nM
- ratio of the EC50s (our compound relative to DTG) against N117A (HIV-1 IN mutant N117A; EC50 compound / EC50 DTG): 12.8
- EC50 (HIV-1 IN mutant N117A; Human immunodeficiency virus 1, read-out: EC50 values N117A): 6.4 nM
- FC N117A (HIV-1 IN mutant N117A; [2]): 0.6
- ratio of the EC50s (our compound relative to DTG) against R231G (HIV-1 IN mutant R231G; EC50 compound / EC50 DTG): 10.9
- EC50 (HIV-1 IN mutant R231G; Human immunodeficiency virus 1, read-out: EC50 values R231G): 15.2 ± 1.4 nM
- FC R231G (HIV-1 IN mutant R231G; [2]): 1.4
- ratio of the EC50s (our compound relative to DTG) against G118R (HIV-1 IN mutant G118R; EC50 compound / EC50 DTG): 16.8
- EC50 (HIV-1 IN mutant G118R; Human immunodeficiency virus 1, read-out: EC50 values G118R): 219 ± 29.8 nM
- FC G118R (HIV-1 IN mutant G118R; [2]): 20.7
- ratio of the EC50s (our compound relative to DTG) against P142H (HIV-1 IN mutant P142H; EC50 compound / EC50 DTG): 9.2
- EC50 (HIV-1 IN mutant P142H; Human immunodeficiency virus 1, read-out: EC50 values P142H): 25.7 ± 2 nM
- ratio of the EC50s (our compound relative to DTG) against S230R (HIV-1 IN mutant S230R; EC50 compound / EC50 DTG): 2.4
- EC50 (HIV-1 IN mutant S230R; Human immunodeficiency virus 1, read-out: EC50 values S230R): 11.2 ± 1.6 nM
- FC S230R (HIV-1 IN mutant S230R; [2]): 1.1
- EC50 (WT HIV-1): 10.6 ± 1 nM
- ratio of the EC50s (our compound relative to DTG) against Y143R (HIV-1 IN mutant Y143R; EC50 compound / EC50 DTG): 1.7
- EC50 (HIV-1 IN mutant Y143R; Human immunodeficiency virus 1, read-out: EC50 values Y143R): 7.2 ± 1.7 nM
- FC Y143R (HIV-1 IN mutant Y143R; [2]): 0.7
- ratio of the EC50s (our compound relative to DTG) against Y143C (HIV-1 IN mutant Y143C; EC50 compound / EC50 DTG): 13.4
- EC50 (HIV-1 IN mutant Y143C; Human immunodeficiency virus 1, read-out: EC50 values Y143C, single round infection, n = 4): 18.8 ± 1.4 nM
- EC50 (HIV-1 IN mutant Y143C; read-out: EC50 values Y143C, single round infection, n = 4): > 18 nM
- ratio of the EC50s (our compound relative to DTG) against Y143H (HIV-1 IN mutant Y143H; EC50 compound / EC50 DTG): 11.4
- EC50 (HIV-1 IN mutant Y143H; Human immunodeficiency virus 1, read-out: EC50 values Y143H, single round infection, n = 4): 25.1 ± 3.6 nM
- EC50 (HIV-1 IN mutant Y143H; read-out: EC50 values Y143H, single round infection, n = 4): > 18 nM
- ratio of the EC50s (our compound relative to DTG) against R231K (HIV-1 IN mutant R231K; EC50 compound / EC50 DTG): 6.7
- EC50 (HIV-1 IN mutant R231K; Human immunodeficiency virus 1, read-out: EC50 values R231K, single round infection, n = 4): 28.2 ± 3.9 nM
- FC R231K (HIV-1 IN mutant R231K; [2]): 2.7
- ratio of the EC50s (our compound relative to DTG) against P142S (HIV-1 IN mutant P142S; EC50 compound / EC50 DTG): 14.2
- EC50 (HIV-1 IN mutant P142S; Human immunodeficiency virus 1, read-out: EC50 values P142S): 31.2 ± 3.7 nM
- ratio of the EC50s (our compound relative to DTG) against N155H (HIV-1 IN mutant N155H; EC50 compound / EC50 DTG): 3.9
- EC50 (HIV-1 IN mutant N155H; Human immunodeficiency virus 1, read-out: EC50 values N155H): 14.1 ± 4.3 nM
- FC N155H (HIV-1 IN mutant N155H; [2]): 1.3
